Experimental data taken from the NIST ThermoML archive (doi:10.1016/j.jct.2006.03.016).

Assay: molar heat capacity at constant pressure
Settings: 101.33 kPa, Crystal, Small (less than 1 g) adiabatic calorimetry

[Cu] [copper]
Settings	molar heat capacity at constant pressure [J/K/mol]
14.2 K	0.1027
15.68 K	0.2097
16.38 K	0.2384
16.77 K	0.2351
17.8 K	0.3079
19.33 K	0.4049
21 K	0.5507
22.76 K	0.7024
24.89 K	0.9364
27.19 K	1.257
29.54 K	1.621
32.17 K	2.071
35.07 K	2.634
35.81 K	2.796
38.36 K	3.344
38.95 K	3.483
42.31 K	4.276
46.05 K	5.166
50.21 K	6.197
54.08 K	7.128
54.62 K	7.296
56.1 K	7.632
58.53 K	8.226
59.11 K	8.36
59.5 K	8.478
63.71 K	9.435
63.87 K	9.508
68.55 K	10.6
73.28 K	11.6
78.07 K	12.55
82.91 K	13.41
87.8 K	14.23
92.71 K	15
93.13 K	15.06
97.66 K	15.72
97.7 K	15.7
102.69 K	16.38
107.7 K	16.96
112.73 K	17.49
117.78 K	18.01
122.84 K	18.49
127.92 K	18.95
133 K	19.37
138.1 K	19.74
143.21 K	20.06
148.33 K	20.36
151.4 K	20.55
153.45 K	20.66
156.5 K	20.85
158.58 K	20.95
161.61 K	21.11
166.74 K	21.37
171.89 K	21.59
177.04 K	21.77
182.2 K	21.94
187.36 K	22.15
192.53 K	22.25
197.69 K	22.35
202.86 K	22.6
203.62 K	22.66
208.02 K	22.73
208.7 K	22.81
213.88 K	22.96
219.05 K	23.11
224.22 K	23.25
229.39 K	23.33
234.57 K	23.45
239.76 K	23.52
244.94 K	23.6
247.71 K	23.62
250.12 K	23.7
253.15 K	23.76
255.31 K	23.79
261.84 K	23.83
270.43 K	24.07
275.79 K	24.13
280.97 K	24.2
286.16 K	24.27
291.35 K	24.32
296.54 K	24.39
301.73 K	24.51
306.93 K	24.55
312.11 K	24.54
317.29 K	24.59
322.48 K	24.64
327.67 K	24.69
332.85 K	24.81
338.04 K	24.86
343.25 K	24.88
348.43 K	25.04
